System: SRS-A generation and release
Assay: Inhibitory effect on generation and release of SRS-A (sensitized guinea pig lung fragments, antigen egg white albumin)
Type: cell-based, guinea pigs (Hartley strain)
Conditions: Cavia porcellus; 10^-6 M test compound; number of experiments 3; lung fragments from sensitized guinea pigs
Experimental: The compounds obtained in accordance with the invention were assayed for the inhibitory effect on the generation of SRS-A by the method of Orange and Moore [J. Immunol., vol. 116, page 392 (1976)]. Thus, the test compound and antigen (egg white albumin) were simultaneously added to the lung fragments from guinea pigs (Hartley strain, male and female, weighing 300-350 g) sensitized with egg white albumin as the antigen. The quantity of SRS-A generated and released on that occasion was determined by the method of Brocklehurst [J. Physiol., vol. 151, pages 416-435 (1960)].

In order of falling inhibition at 1 µM:
1. COC1=C(OC)C(=O)C(CCCCC#CCCCC#CC=O)=C(C)C1=O [Ia-2]  66 ± 6%
2. COC1=C(OC)C(=O)C(CCCCC#CCCCC#CC(=O)O)=C(C)C1=O [Ia-4]  61 ± 8%
3. CC1=C(C)C(=O)C(CCCCC#CCCCC#CC=O)=C(C)C1=O [Ia-1]  59 ± 15%
4. CC1=C(C)C(=O)C(CCCCC#CCCCC#CC(=O)O)=C(C)C1=O [Ia-3, 2,3,5-trimethyl-6-(11-carboxyundeca-5,10-diynyl)-1,4-benzoquinone]  58 ± 6%

System: 5-lipoxygenase products (5-HETE) in RBL-1 cells
Assay: Inhibition of 5-lipoxygenase products in RBL-1 cells (5-HETE production, HPLC)
Type: cell-based
Conditions: Rattus norvegicus, 20 min, 10^-5 M test compound, arachidonic acid + A-23187, 37° C., read-out: Percent inhibition of generation and release of 5-HETE
Experimental: RBL-1 cells (rat basophilic leukemia cells) (10^7 cells) were suspended in 0.5 ml of MCM (mast cell medium), the test solution (composed of 0.5 ml MCM, 50 μg arachidonic acid, 10 μg A-23187 and 10^-6 M or 10^-5 M quinone compound) was added, and the mixture was incubated at 37° C. for 20 minutes. Thereafter, 4 ml of ethanol and 1,4-dimethoxy-2-methyl-3-(3-methoxypropyl)naphthalene (internal standard) were added, and the mixture was shaken well, then allowed to stand at room temperature for 10 minutes, and centrifuged at 2,000 revolutions per minute for 10 minutes. The supernatant was collected and concentrated to about 200 μl under reduced pressure. A mixed solvent for high performance liquid chromatography [CH3 CN (1500)-CH3 OH (500)-water (1100)-acetic acid (2), adjusted to pH 5.6 with aqueous ammonia] was added to the concentrate to make up to 1 ml. A 200-μl portion of this solution was subjected to high performance liquid chromatography for assaying 5-HETE (5-hydroxyeicosatetraenoic acid).
The percentage of inhibition of 5-HETE production (IE) is expressed by (1-b/a)×100, where a is the peak height or area corrected relative to the internal standard peak for the quinone compound-free (control) test solution and b is the peak height or area corrected in relation to the internal standard peak for the quinone compound-containing test solution.

In order of rising inhibition at 10 µM:
1. CCCCCC#CCC#CCC#CCC#CCCCC(=O)O [ETYA, 5,8,11,14eicosatetraynoic acid, reference compound]  39.4%
2. CC1=C(C)C(=O)C(CCCCC#CCCCC#CC=O)=C(C)C1=O [Ia-1]  83.5%
3. COC1=C(OC)C(=O)C(CCCCC#CCCCC#CC=O)=C(C)C1=O [Ia-2]  84.3%
4. COC1=C(OC)C(=O)C(CCCCC#CCCCC#CC(=O)O)=C(C)C1=O [Ia-4]  85.4%
5. CC1=C(C)C(=O)C(CCCCC#CCCCC#CC(=O)O)=C(C)C1=O [Ia-3, 2,3,5-trimethyl-6-(11-carboxyundeca-5,10-diynyl)-1,4-benzoquinone]  86.7%

Same assay, conditions: Rattus norvegicus, 20 min, 10^-6 M test compound, arachidonic acid + A-23187, 37° C., read-out: Percent inhibition of generation and release of 5-HETE

In order of rising inhibition at 1 µM:
1. CCCCCC#CCC#CCC#CCC#CCCCC(=O)O [ETYA, 5,8,11,14eicosatetraynoic acid, reference compound]  35.9%
2. COC1=C(OC)C(=O)C(CCCCC#CCCCC#CC(=O)O)=C(C)C1=O [Ia-4]  70.6%
3. CC1=C(C)C(=O)C(CCCCC#CCCCC#CC=O)=C(C)C1=O [Ia-1]  71.6%
4. COC1=C(OC)C(=O)C(CCCCC#CCCCC#CC=O)=C(C)C1=O [Ia-2]  72.3%
5. CC1=C(C)C(=O)C(CCCCC#CCCCC#CC(=O)O)=C(C)C1=O [Ia-3, 2,3,5-trimethyl-6-(11-carboxyundeca-5,10-diynyl)-1,4-benzoquinone]  75.3%

— patent US4489096A, “Quinone compounds, their production and use” (Takeda Chemical Industries, Ltd., priority 1982, dated 1984)
